Assay results published in patent US6403816B1 (Dabur Research Foundation, priority 1997, dated 2002).

Key:
DU145 = experiment: Tumor cell cytotoxicity assay, prostate; type: cell-based; settings: for Prostate ECS Ratio: ED50 DU145 / ED50 ECV304; for Prostate DU145 (ED50): concentration causing 50% cytotoxicity
Source text: (§1) The cytotoxicity assays for tumor cells have been described in detail in our application Ser. No. 09/040,856 filed in U.S. on Mar. 18, 1998.

L132 = experiment: Tumor cell cytotoxicity assay, lung; type: cell-based; settings: for Lung ECS Ratio: ED50 L132 / ED50 ECV304; for Lung L132 (ED50): concentration causing 50% cytotoxicity
Source text: as §1

ECV304 [1] = experiment: ECV304 endothelial cell proliferation, MTT assay; type: cell-based, human; settings: concentration causing 50% cytotoxicity; MTT after 72 hours
Description: 30 μl of ECV304 cell suspension (50×10^4 cells/ml in RPMI 1640 containing 10% FBS) followed by 150 μl of medium was added to the wells of a 96-well tissue culture plate (Nunc, Denmark) and incubated (37° C., 5% CO2) overnight. […] Each concentration was plated in triplicates. 20μl of medium alone was added to control wells. After 72 hours of incubation an MTT assay (Mosmann, 1983) was performed and percentage inhibition in proliferation of treated cells was calculated with respect to control cells.

PA-1 = experiment: Tumor cell cytotoxicity assay, ovary; type: cell-based; settings: for Ovary ECS Ratio: ED50 PA-1 / ED50 ECV304; for Ovary PA-1 (ED50): concentration causing 50% cytotoxicity
Source text: as §1

HT-29 = experiment: Tumor cell cytotoxicity assay, colon; type: cell-based; settings: for Colon ECS Ratio: ED50 HT-29 / ED50 ECV304; for Colon HT-29 (ED50): concentration causing 50% cytotoxicity
Source text: as §1

ECV304 [2] = experiment: Tube-like-structure (TLS) formation of ECV304 cells on Matrigel; type: cell-based, human; settings: 24-48 hours
Description: Matrigel (70 μl) was placed into each well of a 96-well culture plate at 4° C. and was allowed to polymerize by incubation at 37° C. for 30 min. ECV304 (1×10^4) cells were seeded on the Matrigel in 200 μl DMEM containing 10% FBS. […] Five different phase-contrast microscopic fields (4×) were viewed and total tube area of the tube-like-structures (TLS) measured using Video Pro 32 Image Analysis system. Percent reduction in total tube area was given as the mean of the data from five fields. Percent inhibition of TLS was calculated with reference to Controls(no drug).

[3] = test system: human melanoma cell lines, Mel-1, Mel-2, and Mel-4; settings: Mel-1, Mel-2, Mel-4; cited from earlier work
[4] = test system: A431, BC-1, COL-2, HT1080, KB, LNCaP, LU-1, U373, ZR-75-1; settings: cited from earlier work
MEL-2 cells = settings: cited from earlier work

| Compound | Prostate ECS Ratio (DU145) | Prostate DU145 (ED50) (DU145) [µg/mL] | Lung ECS Ratio (L132) | Lung L132 (ED50) (L132) [µg/mL] | Endothelial ECV304 (ED50) (ECV304 [1]) [µg/mL] | Ovary ECS Ratio (PA-1) | Ovary PA-1 (ED50) (PA-1) [µg/mL] | Colon ECS Ratio (HT-29) | Colon HT-29 (ED50) (HT-29) [µg/mL] | % reduction in total tube area (ECV304 [2]; 0.5 μg/ml) [%] | % reduction in total tube area (ECV304 [2]; 2 μg/ml) [%] | % reduction in total tube area (ECV304 [2]; 4 μg/ml) [%] | Growth of melanoma cell lines [3] | ED50, other cell lines tested [4] | In vitro growth of MEL-2 cells (MEL-2 cells) |
| --- | --- | --- | --- | --- | --- | --- | --- | --- | --- | --- | --- | --- | --- | --- | --- |
| CC(C)C1CCC2(C(=O)O)CCC3(C)C(CCC4C5(C)CCC(N=Cc6ccc(F)cc6F)C(C)(C)C5CCC43C)C12 (stereo not drawn) [MJ1065-RS] | 1.04 | 2.5 | 1.4 | 3.4 | 2.4 | 0.54 | 1.3 | 2.04 | 4.9 | 23.4 | 16.7 | 46.7 |  |  |  |
| C=C(C)C1CCC2(C(=O)O)CCC3(C)C(CCC4C5(C)CCC(OC(=O)c6ccc(CCCCC)cc6)C(C)(C)C5CCC43C)C12 (stereo not drawn) [MJ1104-RS] | 1.05 | 2 | 3.1 | 5.9 | 1.9 | >2.1 | >4 | 1.84 | 3.5 |  |  |  |  |  |  |
| CC(C)C1CCC2(C(=O)O)CCC3(C)C(CCC4C5(C)CCC(NNc6ccccc6)C(C)(C)C5CCC43C)C12 (stereo not drawn) [MJ878-RS] | 19.8 | 9.9 | 1.6 | 0.8 | 0.5 | 7.0 | 3.5 | 3.5 | 1.75 |  |  |  |  |  |  |
| COC(=O)CCOC(=O)C12CCC(C(C)(Br)CBr)C1C1CCC3C4(C)CC(Br)C(=O)C(C)(C)C4CCC3(C)C1(C)CC2 (stereo not drawn) [MJ548-RS] | >4 | >10 | >4 | >10 | 2.5 | 1.56 | 3.9 | 4.0 | >10 |  |  |  |  |  |  |
| CC(C)C1CCC2(C(=O)O)CCC3(C)C(CCC4C5(C)CCC(N=Cc6ccc(F)c(F)c6)C(C)(C)C5CCC43C)C12 (stereo not drawn) [MJ998-RS] | 6.2 | 2.2 | 7.1 | 2.5 | 0.35 | 3.7 | 1.3 | 11.4 | 4 | 21.1 | 13.4 | 33.4 |  |  |  |
| C=C(C)C1CCC2(C(=O)O)CCC3(C)C(CCC4C5(C)CCC(=NNc6ccccc6)C(C)(C)C5CCC43C)C12 (stereo not drawn) [MJ353-RS] | 2.7 | 6.5 | 1.9 | 4.5 | 2.4 | 2.08 | 5 | 4.2 | >10 |  |  |  |  |  |  |
| C=C(C)C1CCC2(C(=O)O)CCC3(C)C(CCC4C5(C)CCC(OC(=O)c6cccc(C(F)(F)F)c6)C(C)(C)C5CCC43C)C12 (stereo not drawn) [MJ939-RS] | >11.1 | >10 | 3.0 | 2.7 | 0.9 | >4.4 | >4 | >11.1 | >10 |  |  |  |  |  |  |
| CC(C)C1CCC2(C(=O)O)CCC3(C)C(CCC4C5(C)CCC(=NOCc6ccc([N+](=O)[O-])cc6)C(C)(C)C5CCC43C)C12 (stereo not drawn) [MJ1098-RS] | 2.5 | 1.5 | 2.1 | 1.3 | 0.6 | 2.7 | 1.6 | 4.3 | 2.6 | 15 | 7.5 | 10 |  |  |  |
| CC(C)C1CCC2(C(=O)O)CCC3(C)C(CCC4C5(C)CCC(OC(=O)c6cc(F)cc(F)c6)C(C)(C)C5CCC43C)C12 (stereo not drawn) [MJ935-RS] | 4.5 | 3.2 | 1.7 | 1.2 | 0.7 |  |  | >14.3 | >10 |  |  |  |  |  |  |
| CC(C)C1CCC2(C(=O)O)CCC3(C)C(CCC4C5(C)CCC(OC(=O)c6ccc(F)cc6F)C(C)(C)C5CCC43C)C12 (stereo not drawn) [MJ937-RS] | 3.5 | 2.5 | 1.5 | 1.1 | 0.7 | 2.3 | 1.6 | 2.4 | 1.7 | 16.7 | 21 | 21.7 |  |  |  |
| C=C(C)C1CCC2(C(=O)O)CCC3(C)C(CCC4C5(C)CCC(OC(=O)Cc6cc(OC)ccc6OC)C(C)(C)C5CCC43C)C12 (stereo not drawn) [MJ1108-RS] | 0.55 | 1 | 2.5 | 4.6 | 1.8 |  |  | >5.6 | >10 |  |  |  |  |  |  |
| CC(C)C1CCC2(C(=O)O)CCC3(C)C(CCC4C5(C)CCC(OC(=O)c6ccccc6C(F)(F)F)C(C)(C)C5CCC43C)C12 (stereo not drawn) [MJ943-RS] | >1.5 | >4 | 1.5 | 4 | 2.6 | >1.53 | >4 | 3.84 | >10 |  |  |  |  |  |  |
| C=C(C)[C@@H]1CC[C@]2(C(=O)O)CC[C@]3(C)[C@H](CC[C@@H]4[C@@]5(C)CC[C@H](O)C(C)(C)[C@@H]5CC[C@]43C)[C@@H]12 [Betulinic acid] |  |  |  |  |  |  |  |  |  |  |  |  | inhibited significantly | greater than 20 μg/ml | inhibit in vitro growth |
| C=CC(=O)OC(=O)C12CCC(C(C)C)C1C1CCC3C4(C)CCC(O)C(C)(C)C4CCC3(C)C1(C)CC2 (stereo not drawn) [MJ1103-RS] | >2.0 | >4 | 2.0 | 4 | 2.0 | 0.75 | 1.5 | 5.0 | 10 |  |  |  |  |  |  |
| C=CC(=O)OC(=O)C12CCC(C(=C)C)C1C1CCC3C4(C)CCC(O)C(C)(C)C4CCC3(C)C1(C)CC2 (stereo not drawn) [MJ1101-RS] | >2.5 | >10 | 0.43 | 1.7 | 4.0 | >1 | >4 | 2.5 | >10 |  |  |  |  |  |  |
| COc1ccc(NNC2CCC3(C)C(CCC4(C)C3CCC3C5C(C(C)C)CCC5(C(=O)O)CCC34C)C2(C)C)cc1 (stereo not drawn) [MJ912-RS] | 21.1 | 8.5 | >10 | >4 | 0.4 |  |  | 0.87 | 0.35 |  |  |  |  |  |  |
| C=C(C)C1CCC2(C(=O)O)CCC3(C)C(CCC4C5(C)CCC(OC(=O)c6ccc(CCCCCCC)cc6)C(C)(C)C5CCC43C)C12 (stereo not drawn) [MJ1138-RS] | >5.8 | >10 | 4.1 | 7 | 1.7 | >2.3 | >4 | >5.89 | >10 |  |  |  |  |  |  |
